According to US12186309B2, “RNA virus inhibitor compounds and uses thereof” (The Governors of the University of Alberta, priority 2021, dated 2025):
Where two headings read alike, the source gives them in different places.

Tests used:
SARS-CoV-2 = SARS-CoV-2 plaque reduction assay in Vero E6 cells; assay type: cell-based; settings: read-out: SARS-CoV-2 Antiviral EC50
SARS-CoV-2 3CLP = SARS-CoV-2 3CLP (Severe acute respiratory syndrome coronavirus 2 (2019-nCoV) (SARS-CoV-2), UniProt P0DTD1); test: SARS-CoV-2 3CLP inhibition FRET assay; assay type: biochemical; settings: 80 nM SARS-CoV-2 3CLP, 100 μM FRET substrate, pH 7.8, 37° C., 10 min preincubation; read-out: 3CL Protease IC50
in vitro = assay type: cell-based
Protocol: Cell viability was measured using the CellTiter-Glo luminescent cell viability assay (Promega). Separately A549 (human lung epithelial) cells and VeroE6 cells were seeded at 5×10^3 cells/well in 96-well plates and incubated overnight before treatment. Compounds were solubilized in DMSO and added to cells in an eight-point four-fold serial dilution (200 μM to 0.0122 μM). Cells were incubated in the presence of compounds for 24 hours before addition of the luminescence substrate and measurement of ATP activity according to manufacturer's instructions. The percentage of viable cells was calculated relative to cells treated with solvent alone (0.5% DMSO).

[1] = Severe acute respiratory syndrome coronavirus 2, Vero C1008, Vero E6 cells, SARS-CoV-2/CANADA/VIDO 01/2020, MOI 0.0001 pfu/cell, plaques counted after 48 h
[2] = Severe acute respiratory syndrome coronavirus 2, Vero C1008, 48 h

Row | SMILES | EC50 (SARS-CoV-2; [1]) [µM] | IC50 (SARS-CoV-2 3CLP) [µM] | CC50 at 24 h (in vitro; African green monkey) [µM] | CC50 at 24 h (in vitro; human) [µM] | EC50 (SARS-CoV-2; [2]) [µM]
1 | CC(C)C[C@@H](C(=O)N[C@H](C#N)C[C@@H]1CCCNC1=O)N1C(=O)C[C@H](c2ccccc2)C1=O [Compound 5, (2S)—N-{(1S)-1-cyano-2-[(3S)-2-oxopiperidin-3-yl]ethyl}-2-[(3R)-2,5-dioxo-3-phenylpyrrolidin-1-yl]-4-methylpentanamide] | > 10 | 6.9 |  |  | 
2 | CC(C)(C)[C@H](NC(=O)C(F)F)C(=O)N1C[C@H]2[C@@H]([C@H]1C(=O)N[C@H](C#N)C[C@@H]1CCCNC1=O)C2(C)C [Compound 20, (1R,2S,5S)—N-{(1S)-1-cyano-2-[(3S)-2-oxopiperidin-3-yl]ethyl}-3-[N-(difluoroacetyl)-3-methyl-L-valyl]-6,6-dimethyl-3-azabicyclo[3.1.0]hexane-2-carboxamide] |  |  | > 200 | > 200 | < 5
3 | CC(C)C[C@@H](C(=O)N[C@H](C#N)C[C@@H]1CCCNC1=O)N1C(=O)CC(C)(C)C1=O [Compound 2, (2S)—N-{(1S)-1-cyano-2-[(3S)-2-oxopiperidin-3-yl]ethyl}-2-(3,3-dimethyl-2,5-dioxopyrrolidin-1-yl)-4-methylpentanamide] | > 10 | 10.7 |  |  | 
4 | CC(C)C[C@@H](C(=O)N[C@H](C#N)C[C@@H]1CCCNC1=O)n1cccc(NC(=O)OC(C)(C)C)c1=O [Compound 7, tert-butyl {1-[(2S)-1-({(1S)-1-cyano-2-[(3S)-2-oxopiperidin-3-yl]ethyl}amino)-4-methyl-1-oxopentan-2-yl]-2-oxo-1,2-dihydropyridin-3-yl}carbamate] | < 10 |  |  |  | 
5 | CC(C)C[C@@H](C(=O)N[C@H](C#N)C[C@@H]1CCCNC1=O)N1C(=O)c2ccccc2C1=O [Compound 1, (2S)—N-{(1S)-1-cyano-2-[(3S)-2-oxopiperidin-3-yl]ethyl}-2-(1,3-dioxo-1,3-dihydro-2H-isoindol-2-yl)-4-methylpentanamide] | > 10 | 8.5 |  |  | 
6 | [2H]C1([2H])CC[C@@H](C[C@@H](C#N)NC(=O)[C@@H]2[C@@H]3[C@H](CN2C(=O)[C@@H](NC(=O)C(F)F)C(C)(C)C)C3(C)C)C(=O)N1 [Compound 24, (1R,2S,5S)—N-{(1S)-1-cyano-2-[(3S)-2-oxo(6,6-^2H2)piperidin-3-yl]ethyl}-3-[N-(difluoroacetyl)-3-methyl-L-valyl]-6,6-dimethyl-3-azabicyclo[3.1.0]hexane-2-carboxamide] |  |  | > 200 | > 200 | < 5
